The source of these data is patent US20120264928A1, “THERAPEUTIC PHARMACEUTICAL AGENT FOR DISEASES ASSOCIATED WITH DECREASE IN FUNCTION OF GNE PROTEIN, FOOD COMPOSITION, AND FOOD ADDITIVE” (JAPAN HEALTH SCIENCES FOUNDATION, priority 2009, published 2012).

This assay concerns primary cultured cells of myotubes derived from the DMRV model mice. Description: Amount of NeuAc by HPLC in myotubes from DMRV model mice. As to conditions: 100 or 500 μm Ac5GlcNAcol together with 10 mM ManNAc, three days. The class given is cell-based. Here is the method: The skeletal muscle tissues collected from the DMRV human patients or the model mice were lightly washed with PBS or Hank's balanced saline and were treated with 0.25% trypsin for 5 minutes. The tissues were finely cut into several millimeters with ophthalmic scissors, were digested with 0.4% collagenase II/0.25% trypsin at 37° C. for 30 minutes, and were left still to collect supernatant. The precipitate was again treated with the enzyme liquid. After being left still, the precipitate was well suspended in a DMEM-Ham's F-12 culture medium. The tissue suspension was passed through a nylon mesh to remove the tissues. The washings and the supernatant were centrifuged to collect cells. […]
In the case that the sample was cultured cells, the cells were washed with PBS three times, and 400 p. […] The fluorescent derivative thus prepared was analyzed with HPLC (JASCO Corp.) using 0.05 to 5 nmol/μl Neu5Ac and Neu5Gc standards. The amount of protein from the tissue was measured with a Bio-Rad Protein Assay kit (Bio-Rad Laboratories).
ManNAc or Ac5GlcNAcol was added to the culture media of primary cultured cells of myotubes derived from the DMRV model mice such that the final concentration of ManNAc was 10 mM and the final concentration of Ac5GlcNAcol was […]. […] The amount of NeuAc in the cultured cells was measured by the HPLC method described above (N=3).

Structures are written as SMILES.

With `CC(=O)N[C@@H](COC(C)=O)[C@@H](OC(C)=O)[C@H](OC(C)=O)[C@@H](COC(C)=O)OC(C)=O` [Ac5GlcNAcol, Penta-O-acetyl N-acetylglucosaminitol], the “amount of NeuAc in the myotubes” value is on record as “further increased the amount of NeuAc”.
